Consider one substance from patent US20130209439A1, “INHIBITORS OF PDE4 BINDING TO HSP20” (THE UNIVERSITY COURT OF THE UNIVERSITY OF GLASGOW, priority 2010, published 2013).

Where no end group is shown, it is not given here.

Assay [1] has as its system neonatal cardiac myocytes. Briefly: Cardiac myocyte size by xCELLigence impedance (normalised cell index). Type of assay: cell-based, rat. Particulars: 24 hour isoprenaline 10 μM, 30 min pre-treatment with 10 μM peptide. On the procedure:
FIG. 7. Peptide disruption of the PDE4D-HSP20 complex attenuates the hypertrophic response triggered by constant […]-agonist treatment. A, Upper panel. The area covered by isolated cardiac myocytes was used as a measure of cell size. Lower panel, Graphical depiction of the mean areas (N=100) of cells following 24 hours of indicated treatments. B, impedance measurements were used to calculate continuous normalised cell index using exCELLigence technology Normalised mean (n=4) cell index after 24 hours of indicated treatments.
The E-Plate 96 (Roche) was used for these experiments^45. This comprises a 96-well plate with integral sensor electrode arrays to measure cell impedance. […] E-plate 96 is a 96-well microtiter plate with incorporated gold cell sensor arrays in the bottom, which allows impedance inside each well to be monitored and assayed in real time. […] The impedance measured between electrodes in an individual well depends on electrode geometry, ion concentration in the well and whether or not cells are attached to the electrodes^45. In the absence of cells, electrode impedance is mainly determined by the ion environment both at the electrode/solution interface and in the bulk solution. […] Small changes in impedance can also be recorded when cells temporally change shape or size in response to agonists^46,57. […]

Assay [2] has as its system phospho-HSP20 in HEK293 cells. As to the kind of experiment: HSP20 Ser16 phosphorylation in HSP20-transfected HEK293 cells treated with peptide. As to conditions: 10 μM peptide, 0-120 min. Type of assay: cell-based. From the text: FIG. 6. Peptide disruption of the PDE4D-HSP20 complex promotes PKA phosphorylation on Ser16. A, Upper panel. HEK293 cells were transfected with HSP20 and PDE4D5. Immunoprecipitation of HSP20 done in the presence increasing concentrations of Peptide 906 (SEQ ID NO: 36) and Peptide control (SEQ ID NO: 37) were probed for PDE4D5. Lower panel. Densitometric analysis of amount of PDE4D5 in HSP20 immunoprecipitates normalised to expression level. Data representative of n=3. B, Purified preparations of HSP20-His and PDE4D5-GST were subject to an ELISA assay containing increasing amounts of ‘Peptide 906’ and ‘peptide control’. C, Upper panel, HSP20 was transfected into HEK293 cells and treated with ‘Peptide 906’ for indicated times. Cellular lysates were blotted for HSP20 and phospho-HSP20. Middle panel, HSP20 was transfected into HEK293 cells and treated with ‘Peptide 906’ or ‘peptide control’ for indicated times. Cellular lysates were blotted for HSP20 and phospho-HSP20. Lower panel, Densitometric analysis of phosphorylation of HSP20 normalised to expression level (n=3).
PolyFect transfection reagent was from Qiagen. […]
HEK293B2 cells are a stable cell line overexpressing the GFP-tagged β2AR were cultured as previously described^48. […] Protein concentration of lysates were determined using the Bradford assay and all samples were equalised for protein concentration. […]

For the substance “Peptide 906: stearoylated, cell-permeable disrupter peptide of PDE4D5 residues E468-K492 (SEQ ID NO: 36) (ENHHLAVGFKLLQEENSDIFQNLTK; also: stearoylated, site not given here)”, in assay [1], the “cell size (normalised cell index, impedance) of cardiac myocytes” value was “could be rescued”. Further, the “phosphorylation of HSP20 at Ser16” value in assay [2] is “robust and significant increase in the phosphorylation of HSP20 at Ser16”.
